Residues, ends and D or L forms follow the SMILES beside them.
How the values were obtained:
[1] = tested on: IL-2 induced edema; test: IL-2 induced vascular leak syndrome, protein concentration of bronchoalveolar lavage fluid; type: in vivo, rats; details: agent 1 uM and 10^6 U/ml Interleukin-2, compared with 10^6 U/ml Interleukin-2 alone, FIG. 6
Protocol: (§1) 1. Assay Models: Vascular leak syndrome is induced rapidly in adult, male rats (500 g) by a continuous infusion for 1 h of 10^6 units of IL-2 (n=36). Five hours later the animals are killed and edema is quantitated by measuring wet to dry (W/D) ratios for the lungs, kidneys, liver, heart, and spleen.
(§2) 2. Controls: Animals are pretreated with 0.5 ml saline for 30 min. prior to the IL-2 infusion (n=28).
(§3) 3. Experimental Animals: Each animal is pretreated with either Phallin A (antamanide) or Phallin B (phalloidin), 20 ug/0.5 ml saline as a single bolus 30 min. prior to the infusion of IL-2 (n=24). Each animal then receives at 30 min. intervals a booster injection of 20 ug of Phallin A or Phallin B for the duration (6 h) of the experiments.
4. Protein Analysis: Samples obtained by bronchoalveolar lavage are quantitated for protein concentration as another means of determining the relative loss of barrier integrity in the experimental animals compared to controls.

[2] = tested on: IL-2 induced edema; test: IL-2 induced vascular leak syndrome, organ wet to dry (W/D) weight ratios; type: in vivo, rats; details: for Spleen wet to dry ratio (splenic edema) / Kidney wet to dry ratio (renal edema) / Liver wet to dry ratio (hepatic edema) / Heart wet to dry weight ratio (cardiac edema) / Lung wet to dry weight ratio (pulmonary edema): agent alone, 1 uM; for Spleen wet to dry ratio (splenic edema): FIG. 1; for Kidney wet to dry ratio (renal edema): FIG. 2; for Liver wet to dry ratio (hepatic edema): FIG. 3; for Heart wet to dry weight ratio (cardiac edema): FIG. 4; for Lung wet to dry weight ratio (pulmonary edema): FIG. 5
[3] = tested on: IL-2 induced edema; test: as above; type: in vivo, rats; details: for Lung wet to dry weight ratio, effect of agent on IL-2 edema: agent 1 uM co-treatment with 10^6 U/ml IL-2, p<0.05, FIG. 5; for Heart wet to dry weight ratio, effect of agent on IL-2 edema: agent 1 uM co-treatment with 10^6 U/mml IL-2, p<0.01, FIG. 4; for Kidney wet to dry ratio, effect of agent on IL-2 edema: agent 1 uM plus 10^6 U/ml IL-2, FIG. 2; for Liver wet to dry ratio, effect of agent with IL-2: agent 1 uM plus IL-2 co-treatment, FIG. 3; for Spleen wet to dry ratio, effect of agent with IL-2: agent plus 10^6 U/ml IL-2, FIG. 1
Protocol: as §1, §2, §3

[4] = tested on: albino mice; details: intramuscularly; cited from earlier work
[5] = tested on: mice or rats; details: high dose levels, intramuscularly; cited from earlier work
[6] = tested on: phalloidin poisoning; details: cited from earlier work

Row | Compound | Protein concentration in bronchoalveolar lavage fluid [1] | Spleen wet to dry ratio (splenic edema) [2] | Kidney wet to dry ratio (renal edema) [2] | Liver wet to dry ratio (hepatic edema) [2] | Heart wet to dry weight ratio (cardiac edema) [2] | Lung wet to dry weight ratio (pulmonary edema) [2] | Lung wet to dry weight ratio, effect of agent on IL-2 edema [3] | Heart wet to dry weight ratio, effect of agent on IL-2 edema [3] | Kidney wet to dry ratio, effect of agent on IL-2 edema [3] | Liver wet to dry ratio, effect of agent with IL-2 [3] | Spleen wet to dry ratio, effect of agent with IL-2 [3] | other results
1 | Phalloidin | drastically reduced the accumulation and concentration of protein | did not produce any significant splenic edema | did not produce any significant renal edema | did not produce any significant hepatic edema | did not produce any significant cardiac edema | did not produce any significant pulmonary edema | significantly reduced | significantly reduced | significantly (p<0.05) worsened | produced significant (p<0.05) edema | remained unmodified | Lung wet to dry weight ratio, effect of agent on IL-2 edema ([3]; listed as Phallin B): decreases IL-2 induced edema; Heart wet to dry weight ratio, effect of agent on IL-2 edema ([3]; listed as Phallin B): decreases IL-2 induced edema; Kidney wet to dry ratio, effect of agent on IL-2 edema ([3]; listed as Phallin B): apparently produces edema; Liver wet to dry ratio, effect of agent with IL-2 ([3]; listed as Phallin B): apparently produces edema; LD50 dose [4]: 3.3 micrograms per gram of body weight; time to death [5]: death of mice or rats within one or two hours
2 | CC(C)[C@@H]1NC(=O)[C@H](Cc2ccccc2)NC(=O)[C@H](Cc2ccccc2)NC(=O)[C@@H]2CCCN2C(=O)[C@@H]2CCCN2C(=O)[C@H](Cc2ccccc2)NC(=O)[C@H](Cc2ccccc2)NC(=O)[C@H](C)NC(=O)[C@@H]2CCCN2C(=O)[C@@H]2CCCN2C1=O [antamanide] (cyclo(AFFPPFFVPP)) | drastically reduced the accumulation and concentration of protein | did not produce any significant splenic edema | did not produce any significant renal edema | did not produce any significant hepatic edema | did not produce any significant cardiac edema | did not produce any significant pulmonary edema | significantly reduced | significantly reduced | signnificantly improved (p<0.05) | No significant change in wet/dry weight ratio | remained unmodified | toxicity of the substance itself ([6]; in vivo): completely non-toxic of itself; effect on toxic effects of fatal doses of phalloidin ([6]; therapeutic doses): capable of actually annulling the toxic effects of fatal doses of phalloidin; Spleen wet to dry ratio, effect of agent with IL-2 ([2]; agent plus 10^6 U/ml IL-2, FIG. 1, listed as Phallin A): appear unaffected; Lung wet to dry weight ratio, effect of agent on IL-2 edema ([3]; listed as Phallin A): prevented IL-2 induced edema; Heart wet to dry weight ratio, effect of agent on IL-2 edema ([3]; listed as Phallin A): prevented IL-2 induced edema; Kidney wet to dry ratio, effect of agent on IL-2 edema ([3]; listed as Phallin A): prevented IL-2 induced edema; Liver wet to dry ratio, effect of agent with IL-2 ([3]; listed as Phallin A): appear unaffected
